Assay results reported in PMC8242589, “Cardiac Safety of Kinase Inhibitors – Improving Understanding and Prediction of Liabilities in Drug Discovery Using Human Stem Cell-Derived Models” (Frontiers in Cardiovascular Medicine, 2021).

Legend:
Format in all cases: cell-based, human
[1] = system: hSC-CMs (Cor.4U Cardiomyocytes); assay: Apoptosis assay (CellEvent Caspase-3/7 Green, IncuCyte ZOOM kinetics over 24 h); set-up: key to Caspase / Caspase MEAN: % of time-matched vehicle control (green object area); details: for Caspase MEAN: DMSO = 100; for Caspase: normalized to time-matched vehicle control
Method: Cor.4U® Cardiomyocytes ([…], Netherlands) were cultured in 96-well plates at density of 25,000 - 30,000 cells per well. Cells were maintained at 5% CO2 and 37 °C for 4 days prior to experiments. […] The plates were incubated 2 h before compound treatment in the IncuCyte ZOOM (ESSEN BioScience, Ann Arbor, Michigan) to set a baseline before the 24 h compound treatment. […] Imaging was done using 10x microscope objective of the IncuCyteZOOM with four images per well-taken every 2 h in both phase-contrast and green fluorescence. The fluorescent nuclear signal of the apoptotic cells was separated from background with the integrated object counting algorithm, adjusted to cardiomyocytes, and the calculated total green object area per well (μm^2/well) plotted against time. Data were normalized to those of the time-matched vehicle control. Data were representative of at least three replicates per concentration.

[2] = system: hSC-CMs (Cor.4U Cardiomyocytes); assay: ATP assay (CellTiter-Glo Luminescent Cell Viability Assay); details: for ATP: normalized to time-matched DMSO control
Method: Cor.4U® Cardiomyocytes (Ncardia, Netherlands) were cultured in 96-well plates at density of 25,000 – 30,000 cells per well. Cells were maintained at 5% CO2 and 37 °C for 4 days prior to experiments. The cell culture medium (Cor4U® Complete Culture Medium, cat# Ax-M-HC250E, Axiogenesis AG, Cologne, Germany) was changed every 24 h and was replaced by serum-free BMCC medium (cat# Ax-M-BMCC259, Axiogenesis AG, Cologne, Germany) 12 h prior to drug addition.
The CellTiter-Glo Luminescent Cell Viability Assay (cat# G7572, Promega, USA) was performed for quantification of the cellular ATP concentration according to manufacturer's instructions. Plates were shaken for 2 min in the dark, incubated at ambient temperature for 10 min before measuring luminescence (Integration time 0.1 seconds per well) with Luminescence Counter (Synergy H1, BioTek Instruments, Inc., Winooski, Vermont). The measured ATP concentration values were normalized to the time-matched DMSO controls. Data are representative of at least three replicates per concentration.

[3] = system: hSC-CMs (Cor.4U Cardiomyocytes); assay: CardioExcyte 96 impedance and EFP recording (beating rate, base impedance); details: for BR / Base Imp: vs baseline before drug (taken as 100%)
Method: Cor.4U® Cardiomyocytes (Ncardia, Netherlands) were cultured in 96-well plates at density of 25,000 – 30,000 cells per well. Cells were maintained at 5% CO2 and 37 °C for 4 days prior to experiments.
Functional monitoring of cardiomyocytes was done using CardioExcyte® 96 (Nanion technologies GmbH, Germany). Extracellular field potential (EFP) and impedance signals were recorded from hSC-CMs that formed monolayers in the wells of the NSP-96 plate. Beating Rate (BR, per minute) was calculated as the reciprocal of the inter-spike interval (ISI) in EFP signal. Impedance signals from spontaneously beating hSC-CMs were recorded with a sampling rate of 1 ms (1 kHz), and EFP data were collected at 0.1ms (10 kHz). Data acquisition was controlled by CardioExcyte® 96 Control software as previously described ([22]). The functional parameters recorded in each concentration of test items were compared to the base line values before drug addition (taken as 100%) to define fractional change.

## CN[C@@H]1C[C@H]2O[C@@](C)([C@@H]1OC)n1c3ccccc3c3c4c(c5c6ccccc6n2c5c31)C(=O)NC4 [Staurosporine]
[1]; 1 µM, Time 2.75
  Caspase MEAN: 85
[1]; 1 µM, Time 4.75
  Caspase MEAN: 254
[1]; 1 µM, Time 6.75
  Caspase MEAN: 1532
[1]; 1 µM, Time 8.75
  Caspase MEAN: 3137
[1]; 1 µM, Time 10.75
  Caspase MEAN: 4841
[1]; 1 µM, Time 12.75
  Caspase MEAN: 5989
[1]; 1 µM, Time 14.75
  Caspase MEAN: 7301
[1]; 1 µM, Time 16.75
  Caspase MEAN: 7458
[1]; 1 µM, Time 18.75
  Caspase MEAN: 8506
[1]; 1 µM, Time 20.75
  Caspase MEAN: 7604
[1]; 1 µM, Time 22.75
  Caspase MEAN: 7381
[1]; 1 µM, Time 24.75
  Caspase MEAN: 7608
[1]; 1 µM, Time 26.75
  Caspase MEAN: 7240

## CCOC(=O)c1cnc2ccc(-c3cncc(NS(=O)(=O)c4ccccc4)c3)cn12 [HS-173]
[2]; 0.03 µM, 2h
  ATP: 89
[2]; 0.03 µM, 24h
  ATP: 98
[2]; 0.1 µM, 2h
  ATP: 87
[2]; 0.1 µM, 24h
  ATP: 99
[2]; 0.3 µM, 2h
  ATP: 86
[2]; 0.3 µM, 24h
  ATP: 90
[2]; 1 µM, 2h
  ATP: 86
[2]; 1 µM, 24h
  ATP: 83
[2]; hSC-CMs, after 24 h of incubation
  Decrease of ATP level: 20–25%
[3]; 0.03 µM, 2h
  BR: 105
  Base Imp: 87
[3]; 0.03 µM, 24h
  BR: 97
  Base Imp: 87
[3]; 0.1 µM, 2h
  BR: 93
  Base Imp: 83
[3]; 0.1 µM, 24h
  BR: 89
  Base Imp: 85
[3]; 0.3 µM, 2h
  BR: 85
  Base Imp: 81
[3]; 0.3 µM, 24h
  BR: 84
  Base Imp: 72
[3]; 1 µM, 2h
  BR: 86
  Base Imp: 69
[3]; 1 µM, 24h
  BR: 75
  Base Imp: 67
[3]; hSC-CMs, 2 and 24 h
  Reduction of base impedance: more than 20%
  Reduction of beating rate: more than 20%
[1]
  Apoptosis (caspase-3/7 activation), result in words: induced apoptosis in hSC-CMs with a fast onset
[1]; 0.03 µM, 2h
  Caspase: 167
[1]; 0.03 µM, 24h
  Caspase: 80
[1]; 0.1 µM, 2h
  Caspase: 138
[1]; 0.1 µM, 24h
  Caspase: 151
[1]; 0.3 µM, 2h
  Caspase: 123
[1]; 0.3 µM, 24h
  Caspase: 200
[1]; 1 µM, 2h
  Caspase: 120
[1]; 1 µM, 24h
  Caspase: 373
[1]; hSC-CMs, monitored over 24 h
  Time to reach the maximum number of apoptotic cells: ≤ 12 h
